Source: patent publication US20240218022A1, “ANTI-VISTA MACROCYCLIC PEPTIDES AND COMPOSITIONS” (BRISTOL-MYERS SQUIBB COMPANY, priority 2022, published 2024)
Where two headings read alike, the source gives them in different places. Positions of bridges follow the written chain, without caps; N, C: chain ends. Non-standard residues stand in square brackets, D forms with d. Residues, ends and D or L forms follow the SMILES beside them. *: point of attachment. Phe(3,4-(OMe)2) = COc1ccc(C[C@H](N)C(=O)O)cc1OC; Phe(4-CF3) = N[C@@H](Cc1ccc(C(F)(F)F)cc1)C(=O)O; Phe(4-NH2) = Nc1ccc(C[C@H](N)C(=O)O)cc1; Phe(4-F) = N[C@@H](Cc1ccc(F)cc1)C(=O)O; Ahp(2) = CCCCC[C@H](N)C(=O)O; NHexGly = CCCCCCNCC(=O)O; Nle = CCCC[C@H](N)C(=O)O; Aun = NCCCCCCCCCCC(=O)O; AEEA = NCCOCCOCC(=O)O; Allyl = C=CC*

Target: T1, mouse VISTA (mVISTA) (Mus musculus, UniProt Q9D659)
T1 construct: expressed in transfected cells; host or cells: Human embryonic kidney 293T cells
T1 sequence (Q9D659 33-308): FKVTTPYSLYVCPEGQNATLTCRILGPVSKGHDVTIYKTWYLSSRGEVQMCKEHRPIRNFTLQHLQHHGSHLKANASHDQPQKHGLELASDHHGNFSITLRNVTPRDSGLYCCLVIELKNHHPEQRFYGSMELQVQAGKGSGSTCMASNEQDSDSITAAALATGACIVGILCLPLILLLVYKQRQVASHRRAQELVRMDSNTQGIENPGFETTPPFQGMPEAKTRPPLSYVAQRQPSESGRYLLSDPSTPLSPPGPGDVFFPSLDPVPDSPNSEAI
Assay: Cell-Based Binding High-Content Assay For mVISTA (HC CBA mVISTA)
Procedure, shortened: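 Competition of compound with a biotinylated peptide (final 2 nM, 30 min at RT) for binding to mVISTA on 293T cells, run under no-wash or wash (1 h compound preincubation then removal) formats. Readout by Alexa 647–streptavidin imaging on a high-content platform; four-parameter logistic fit gave IC50.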

[1] = the 20th table, scaffold drawing 23, read-out: HC CBA mVISTA IC50

SMILES	IC50 [1] [nM]	IC50 (cell-based binding high-content assay, mVISTA, read-out: HC CBA miPr ISTA IC50) [nM]
CCCCCCN1CC(=O)N[C@@H](Cc2ccc(O)cc2)C(=O)N[C@@H](CCCC)C(=O)NCC(=O)N[C@@H](CCCNC(=N)N)C(=O)N[C@@H](CC(C)C)C(=O)N[C@@H](CCCCC)C(=O)N2CCC[C@H]2C(=O)N[C@@H](C(C)C)C(=O)N[C@@H](CC(=O)O)C(=O)N[C@H](C(=O)NCC(=O)O)CSCC(=O)N[C@@H](Cc2ccc(OC)c(OC)c2)C(=O)N[C@@H](Cc2ccc(O)cc2)C(=O)N[C@@H](CC(=O)O)C1=O [compound 1458] ({CH2CO}-[Phe(3,4-(OMe)2)]YD[NHexGly]Y[Nle]GRL[Ahp(2)]PVDCG-OH; thioether N-14)	33.8	
CCCCCCN1CC(=O)N[C@@H](Cc2ccc(O)cc2)C(=O)N[C@@H](CCCC)C(=O)N[C@@H](CC(N)=O)C(=O)N[C@@H](CCCNC(=N)N)C(=O)N[C@@H](CC(C)C)C(=O)N[C@@H](CCCCC)C(=O)N2CCC[C@H]2C(=O)N[C@@H](C(C)C)C(=O)N[C@@H](CC(=O)O)C(=O)N[C@H](C(=O)NCC(=O)O)CSCC(=O)N[C@@H](Cc2ccc(C(F)(F)F)cc2)C(=O)N[C@@H](Cc2c[nH]c3ccccc23)C(=O)N[C@@H](CC(=O)O)C1=O [compound 1459] ({CH2CO}-[Phe(4-CF3)]WD[NHexGly]Y[Nle]NRL[Ahp(2)]PVDCG-OH; thioether N-14)	23.4	
CCCCCCN1CC(=O)N[C@@H](Cc2ccc(O)cc2)C(=O)N[C@@H](CC(C)C)C(=O)N[C@@H](CC(N)=O)C(=O)N[C@@H](CCCNC(=N)N)C(=O)N[C@@H](CC(C)C)C(=O)N[C@@H](CCCCC)C(=O)N2CCC[C@H]2C(=O)N[C@@H](C(C)C)C(=O)N[C@@H](C(C)C)C(=O)N[C@H](C(=O)NCC(=O)O)CSCC(=O)N[C@@H](Cc2ccc(C(F)(F)F)cc2)C(=O)N[C@@H](Cc2c[nH]c3ccccc23)C(=O)N[C@@H](CC(=O)O)C1=O [compound 1460] ({CH2CO}-[Phe(4-CF3)]WD[NHexGly]YLNRL[Ahp(2)]PVVCG-OH; thioether N-14)	8.7	
CCCCCCN1CC(=O)N[C@@H](Cc2ccc(O)cc2)C(=O)N[C@@H](CCCC)C(=O)N[C@@H](CC(N)=O)C(=O)N[C@@H](CCCNC(=N)N)C(=O)N[C@@H](CC(C)C)C(=O)N[C@@H](CCCCC)C(=O)N2CCC[C@H]2C(=O)N[C@@H](C(C)C)C(=O)N[C@@H](CC(=O)O)C(=O)N[C@H](C(=O)NCC(=O)O)CSCC(=O)N[C@@H](Cc2ccc(C(F)(F)F)cc2)C(=O)N[C@@H](Cc2ccc(O)cc2)C(=O)N[C@@H](CC(=O)O)C1=O [compound 1461] ({CH2CO}-[Phe(4-CF3)]YD[NHexGly]Y[Nle]NRL[Ahp(2)]PVDCG-OH; thioether N-14)	5	
CCCCCCN1CC(=O)N[C@@H](Cc2ccc(O)cc2)C(=O)N[C@@H](CCCC)C(=O)N[C@@H](CC(N)=O)C(=O)N[C@@H](CCCNC(=N)N)C(=O)N[C@@H](CC(C)C)C(=O)N[C@@H](CCCCC)C(=O)N2CCC[C@H]2C(=O)N[C@@H](C(C)C)C(=O)N[C@@H](CO)C(=O)N[C@H](C(=O)NCC(=O)O)CSCC(=O)N[C@@H](Cc2ccc(F)cc2)C(=O)N[C@@H](Cc2ccc(O)cc2)C(=O)N[C@@H](CC(=O)O)C1=O [compound 1462] ({CH2CO}-[Phe(4-F)]YD[NHexGly]Y[Nle]NRL[Ahp(2)]PVSCG-OH; thioether N-14)	22.2	
CCCCCCN1CC(=O)N[C@@H](Cc2ccc(O)cc2)C(=O)N[C@@H](CCCC)C(=O)NCC(=O)N[C@@H](CCCNC(=N)N)C(=O)N[C@@H](CC(C)C)C(=O)N[C@@H](CCCCC)C(=O)N2CCC[C@H]2C(=O)N[C@@H](C(C)C)C(=O)N[C@@H](CC(=O)O)C(=O)N[C@H](C(=O)NCC(=O)O)CSCC(=O)N[C@@H](Cc2ccc(N)cc2)C(=O)N[C@@H](Cc2ccc(O)cc2)C(=O)N[C@@H](CC(=O)O)C1=O [compound 1464] ({CH2CO}-[Phe(4-NH2)]YD[NHexGly]Y[Nle]GRL[Ahp(2)]PVDCG-OH; thioether N-14)	31.4	
CCCCCCN1CC(=O)N[C@@H](Cc2ccc(O)cc2)C(=O)N[C@@H](CCCC)C(=O)N[C@H](CC(N)=O)C(=O)N[C@@H](CCCNC(=N)N)C(=O)N[C@@H](CC(C)C)C(=O)N[C@@H](CCCCC)C(=O)N2CCC[C@H]2C(=O)N[C@@H](C(C)C)C(=O)N[C@@H](CO)C(=O)N[C@H](C(=O)NCC(=O)O)CSCC(=O)N[C@@H](Cc2c[nH]c3ccccc23)C(=O)N[C@@H](Cc2ccc(O)cc2)C(=O)N[C@@H](CC(=O)O)C1=O [compound 1471] ({CH2CO}-WYD[NHexGly]Y[Nle][dN]RL[Ahp(2)]PVSCG-OH; thioether N-14)	32.9	
CCCCCCN1CC(=O)N[C@@H](Cc2ccc(O)cc2)C(=O)N[C@@H](CCCC)C(=O)NCC(=O)N[C@@H](CCCNC(=N)N)C(=O)N[C@@H](CC(C)C)C(=O)N[C@@H](CCCCC)C(=O)N2CCC[C@H]2C(=O)N[C@@H](C(C)C)C(=O)N[C@@H](CC(=O)O)C(=O)N[C@H](C(=O)NCC(=O)O)CSCC(=O)N[C@@H](Cc2ccc(O)cc2)C(=O)N[C@@H](Cc2ccccc2)C(=O)N[C@@H](CC(=O)O)C1=O [compound 1472] ({CH2CO}-YFD[NHexGly]Y[Nle]GRL[Ahp(2)]PVDCG-OH; thioether N-14)	15.5	
CCCCCCN1CC(=O)N[C@@H](Cc2ccc(O)cc2)C(=O)N[C@@H](CCCC)C(=O)N[C@@H](CC(N)=O)C(=O)N[C@@H](CCCNC(=N)N)C(=O)N[C@@H](CC(C)C)C(=O)N[C@@H](CCCCC)C(=O)N2CCC[C@H]2C(=O)N[C@@H](C(C)C)C(=O)N[C@@H](CO)C(=O)N[C@H](C(=O)NCC(=O)O)CSCC(=O)N[C@@H](Cc2ccc(O)cc2)C(=O)N[C@@H](Cc2ccc(O)cc2)C(=O)N[C@@H](CC(=O)O)C1=O [compound 1473] ({CH2CO}-YYD[NHexGly]Y[Nle]NRL[Ahp(2)]PVSCG-OH; thioether N-14)	3.2	
CCCCCCN1CC(=O)N[C@@H](Cc2ccc(O)cc2)C(=O)N[C@@H](CCCC)C(=O)N[C@@H](CC(N)=O)C(=O)N[C@@H](CCCNC(=N)N)C(=O)N[C@@H](CC(C)C)C(=O)N[C@@H](CCCCC)C(=O)N2CCC[C@H]2C(=O)N[C@@H](C(C)C)C(=O)N[C@@H](CO)C(=O)N[C@H](C(=O)NCC(N)=O)CSCC(=O)N[C@@H](Cc2ccc(O)cc2)C(=O)N[C@@H](Cc2ccc(O)cc2)C(=O)N[C@@H](CC(=O)O)C1=O [compound 1474] ({CH2CO}-YYD[NHexGly]Y[Nle]NRL[Ahp(2)]PVSCG-NH2; thioether N-14)	40.4	
C=CCOc1ccc(C[C@@H]2NC(=O)CSC[C@@H](C(=O)NCC(N)=O)NC(=O)[C@H](CC(=O)O)NC(=O)[C@H](C(C)C)NC(=O)[C@@H]3CCCN3C(=O)[C@H](CCCCC)NC(=O)[C@H](CC(C)C)NC(=O)[C@H](CCCNC(=N)N)NC(=O)CNC(=O)[C@H](C(C)C)NC(=O)[C@H](Cc3ccc(O)cc3)NC(=O)CN(CCCCCC)C(=O)[C@H](CC(=O)O)NC(=O)[C@H](Cc3ccc(O)cc3)NC2=O)cc1 [compound 1475] ({CH2CO}-Y(Allyl)YD[NHexGly]YVGRL[Ahp(2)]PVDCG-NH2; thioether N-14)	10.7	
CCCCCCN1CC(=O)N[C@@H](Cc2ccc(O)cc2)C(=O)N[C@@H](CCCC)C(=O)N[C@@H](CC(N)=O)C(=O)N[C@@H](CCCNC(=N)N)C(=O)N[C@@H](CC(C)C)C(=O)N[C@@H](CCCCC)C(=O)N2CCC[C@H]2C(=O)N[C@@H](C(C)C)C(=O)N[C@@H](CC(=O)O)C(=O)N[C@H](C(=O)NCC(=O)O)CSCC(=O)N[C@@H](Cc2ccc(OCC)cc2)C(=O)N[C@@H](Cc2c[nH]c3ccccc23)C(=O)N[C@@H](CC(=O)O)C1=O [compound 1476] ({CH2CO}-Y(Et)WD[NHexGly]Y[Nle]NRL[Ahp(2)]PVDCG-OH; thioether N-14)	36.5	
CCCCCCN1CC(=O)N[C@@H](Cc2ccc(O)cc2)C(=O)N[C@@H](C(C)C)C(=O)NCC(=O)N[C@@H](CCCNC(=N)N)C(=O)N[C@@H](CC(C)C)C(=O)N[C@@H](CCCCC)C(=O)N2CCC[C@H]2C(=O)N[C@@H](C(C)C)C(=O)N[C@@H](CC(=O)O)C(=O)N[C@H](C(=O)NCC(N)=O)CSCC(=O)N[C@@H](Cc2ccc(OC)cc2)C(=O)N[C@@H](Cc2ccc(O)cc2)C(=O)N[C@@H](CC(=O)O)C1=O [compound 1477] ({CH2CO}-Y(Me)YD[NHexGly]YVGRL[Ahp(2)]PVDCG-NH2; thioether N-14)	49.2	
CCCCCCN1CC(=O)N[C@@H](Cc2ccc(O)cc2)C(=O)N[C@@H](C(C)C)C(=O)NCC(=O)N[C@@H](CCCNC(=N)N)C(=O)N[C@@H](CC(C)C)C(=O)N[C@@H](CCCCC)C(=O)N2CCC[C@H]2C(=O)N[C@@H](C(C)C)C(=O)N[C@@H](CC(=O)O)C(=O)N[C@H](C(=O)NCC(=O)O)CSCC(=O)N[C@@H](Cc2ccc(OC)cc2)C(=O)N[C@@H](Cc2ccc(O)cc2)C(=O)N[C@@H](CC(=O)O)C1=O [compound 1478] ({CH2CO}-Y(Me)YD[NHexGly]YVGRL[Ahp(2)]PVDCG-OH; thioether N-14)	12	
CCCCCCN1CC(=O)N[C@@H](Cc2ccc(O)cc2)C(=O)N[C@@H](CC(C)C)C(=O)N[C@@H](CC(N)=O)C(=O)N[C@@H](CCCNC(=N)N)C(=O)N[C@@H](CC(C)C)C(=O)N[C@@H](CCCCC)C(=O)N2CCC[C@H]2C(=O)N[C@@H](C(C)C)C(=O)N[C@@H](CO)C(=O)N[C@H](C(=O)NCC(=O)NCCOCCOCC(=O)N[C@@H](CC(=O)O)C(=O)NCCOCCOCC(=O)NCCCCCCCCCCC(=O)O)CSCC(=O)N[C@@H](Cc2ccccc2)C(=O)N[C@@H](Cc2ccc(O)cc2)C(=O)N[C@@H](CC(=O)O)C1=O [compound 2001] ({CH2CO}-FYD[NHexGly]YLNRL[Ahp(2)]PVSCG[AEEA]D[AEEA][Aun]-OH; thioether N-14)		19.8
